Biological target: T1, full length Aurora-A (AA 1-403) (Homo sapiens, UniProt O14965)
T1 sequence (O14965 1-403): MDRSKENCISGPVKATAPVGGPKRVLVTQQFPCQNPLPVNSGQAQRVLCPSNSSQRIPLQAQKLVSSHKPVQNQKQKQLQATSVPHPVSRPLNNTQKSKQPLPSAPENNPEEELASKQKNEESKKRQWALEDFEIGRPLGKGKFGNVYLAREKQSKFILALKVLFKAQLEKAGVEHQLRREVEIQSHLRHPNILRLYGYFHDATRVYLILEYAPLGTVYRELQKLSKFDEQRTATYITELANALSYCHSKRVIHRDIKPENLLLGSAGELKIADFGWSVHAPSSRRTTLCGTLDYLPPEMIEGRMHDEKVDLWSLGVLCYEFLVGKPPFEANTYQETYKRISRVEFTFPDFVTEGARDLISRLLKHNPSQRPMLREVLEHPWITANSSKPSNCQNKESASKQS
Experiment: AuroraA Inhibition Assay (coupled enzyme system)
Assay type: biochemical
Settings: standard coupled enzyme system, 200 μM ATP, 800 μM peptide (LRRASLG), 35 nM Aurora-A, 30° C.
Description: Compounds were screened for their ability to inhibit full length Aurora-A (AA 1-403) activity using a standard coupled enzyme system (Fox et al., Protein Sci., 7, pp. 2249 (1998)). Reactions were carried out in a solution containing 100 mM HEPES (pH 7.5), 10 mM MgCl2, 25 mM NaCl, 300 μM NADH, 1 mM DTT and 3% DMSO. Final substrate concentrations in the assay were 200 μM ATP (Sigma Chemicals, St Louis, Mo.) and 800 μM peptide (LRRASLG, American Peptide, Sunnyvale, Calif.). Reactions were carried out at 30° C. and 35 nM Aurora-A. Final concentrations of the components of the coupled enzyme system were 2.5 mM phosphoenolpyruvate, 200 μM NADH, 60 μg/ml pyruvate kinase and 20 μg/ml lactate dehydrogenase.
An assay stock buffer solution was prepared containing all of the reagents listed above with the exception of ATP and the test compound of interest. The assay stock buffer solution (60 μl) was incubated in a 96 well plate with 2 μl of the test compound of interest at final concentrations spanning 0.002 μM to 30 μM at 30° C. for 10 min. […] Rates of reaction were obtained using a Molecular Devices Spectramax plate reader (Sunnyvale, Calif.) over 10 min at 30° C. The Ki values were determined from the rate data as a function of inhibitor concentration using computerized nonlinear regression (Prism 3.0, Graphpad Software, San Diego, Calif.).

Clc1cnc2[nH]cc(-c3cccc(Br)c3)c2n1 [Compound I-1, 7-(3-Bromo-phenyl)-2-chloro-5H-pyrrolo[2,3-b]pyrazine]
Ki: < 200 nM

C[C@H](Nc1nc(-c2c[nH]c3ncc(Cl)nc23)ncc1F)c1ccc(F)cc1 [Compound I-28]
Ki: < 200 nM
